Structures can show the parent of a compound that is named as a salt.
Key:
[1] = Solid-form transformation upon drying; type: physicochemical; conditions: transient solvate form in suspension during the crystallization of Form A
[2] = Relative thermodynamic stability of polymorphic forms; type: physicochemical; conditions: polymorph comparison, succinate salt

Structure (SMILES)	form stability / transformation upon drying [1]	thermodynamic stability relative to Form A [2]
CCCN(CCC)C(=O)COC(=O)CCNS(=O)(=O)c1cccc(C(=O)N2CCC3(CC2)CN/C(=N\C(=O)c2nc(Cl)c(N)nc2N)N3)c1 [Form B, 3-(3-{2-[(E)-3,5-Diamino-6-chloro-pyrazine-2-carbonylimino]-1,3,8-triaza-spiro[4.5]decane-8-carbonyl}-benzenesulfonylamino)-propionic acid dipropylcarbamoylmethyl ester succinate salt]	transforms into Form A upon drying	
CCCN(CCC)C(=O)COC(=O)CCNS(=O)(=O)c1cccc(C(=O)N2CCC3(CC2)CN/C(=N\C(=O)c2nc(Cl)c(N)nc2N)N3)c1 [Form C, 3-(3-{2-[(E)-3,5-Diamino-6-chloro-pyrazine-2-carbonylimino]-1,3,8-triaza-spiro[4.5]decane-8-carbonyl}-benzenesulfonylamino)-propionic acid dipropylcarbamoylmethyl ester succinate salt]		thermodynamically more stable than Form A
